Laboratory results taken from patent US20220380347A1, “INHIBITORS OF CYSTEINE PROTEASES AND METHODS OF USE THEREOF” (Pardes Biosciences, Inc., priority 2020, published 2022).
Where two headings read alike, the source gives them in different places.

Tests used:
HCoV 229E = HCoV 229E cytopathic effect (CPE) assay, CellTiter Glo; assay type: cell-based, human coronavirus (HCov) 229E; conditions: protection of virus-induced CPE
Description: Example 238: Evaluation of antiviral activity of compounds against human coronavirus (HCov) 229E and OC43 in the cytopathic effect (CPE) assays
Compounds were assayed using standard methods against multiple coronaviral strains, including HCoV 229E and OC43 strains. The antiviral activity of compounds was calculated based on the protection of the virus-induced CPE at each concentration normalized by the virus control.
Cytopathic effect (CPE) was measured by CellTiter Glo following the manufacturer's manual. The antiviral activity of compounds was calculated based on the protection of the virus-induced CPE at each concentration normalized by the virus control.
Cell viability was measured with CellTiter Glo.

[1] = biological target: COVID-19 (nCoV-2019, SARS-CoV2) Mpro (Severe acute respiratory syndrome coronavirus 2, UniProt P0DTD1); assay: COVID-19 (nCoV-2019, SARS-CoV2) Mpro enzymatic assay; assay type: biochemical; conditions: 25 nM Mpro, 25 μM substrate; read-out: COVID-19 Mpro IC50
229E Mpro = 229E Mpro (Human coronavirus 229E, UniProt P0C6X1); assay: 229E Mpro enzymatic assay (standard methods, SARS-CoV2 Mpro assay given as exemplary); assay type: biochemical, human coronavirus (HCov) 229E
Chain of 229E Mpro (P0C6X1 2966-3267): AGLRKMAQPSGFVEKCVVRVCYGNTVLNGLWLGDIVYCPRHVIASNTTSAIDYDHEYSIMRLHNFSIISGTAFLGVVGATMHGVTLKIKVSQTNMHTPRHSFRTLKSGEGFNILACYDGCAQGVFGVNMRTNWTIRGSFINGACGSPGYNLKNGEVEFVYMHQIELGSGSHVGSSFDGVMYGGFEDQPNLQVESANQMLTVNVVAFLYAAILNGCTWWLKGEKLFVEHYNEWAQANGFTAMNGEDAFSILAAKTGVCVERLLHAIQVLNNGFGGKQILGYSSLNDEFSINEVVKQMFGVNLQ
How it was run: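 IC50 for 229E Mpro by standard methods; exemplary SARS-CoV-2 protocol used C-His6-tagged Mpro from E. coli, 25 nM enzyme, 25 μM substrate (Km 13.5 μM), in Tris-HCl pH 7.3, NaCl, EDTA, TCEP, 0.1% BSA. Inhibition normalised to no-compound and full-effect controls; four-parameter fit.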

HCov OC43 = assay: HCoV OC43 cytopathic effect (CPE) assay, CellTiter Glo; assay type: cell-based, human coronavirus (HCov) OC43; conditions: Betacoronavirus 1, OC43, read-out: OC43 IC50 (uM) MEDIAN, median

| Compound | EC50 (HCoV 229E; unidentified human coronavirus) [µM] | IC50 [1] [µM] | EC50 (229E Mpro; 229E Mpro EC50) [µM] | further results |
| --- | --- | --- | --- | --- |
| N#CN1C[C@H](O)C[C@@H]1C(=O)N(c1ccc(C2(C(F)(F)F)CC2)cc1)C(C(=O)NC1CCC(F)(F)CC1)c1cncc(F)c1 (single isomer, unassigned) [815 Isomer 1] | < 2 | – | – | – |
| N#CN1C[C@H](O)C[C@@H]1C(=O)N(c1ccc(C2(C(F)(F)F)CC2)cc1)C(C(=O)NC1CCC(F)(F)CC1)c1cncc(F)c1 (single isomer, unassigned) [815 Isomer 2] | – | – | – | EC50 (HCoV 229E): < 2 µM |
| CC(C)(C)c1ccc(N(C(=O)[C@H]2COCCN2C#N)C(C(=O)NC2CCCCC2)c2cccnc2)cc1 (single isomer, unassigned) [Compound 202 Isomer 1] | < 2 | < 2 | < 2 | – |
| CC(C)(C)c1ccc(N(C(=O)[C@@]2(C)CCCN2C#N)C(C(=O)NC2CCCCC2)c2cccnc2)cc1 (single isomer, unassigned) [Compound 238 Isomer 1] | 2 to 10 | – | – | – |
| CC(C)(C)c1ccc(N(C(=O)[C@@]2(C)CCCN2C#N)C(C(=O)NC2CCCCC2)c2cccnc2)cc1 (single isomer, unassigned) [Compound 238 Isomer 2] | – | – | – | EC50 (HCoV 229E): < 2 µM |
| C[C@H]1CC[C@H](C(=O)N(c2ccc(C(C)(C)C)cc2)C(C(=O)NC2CCCCC2)c2cccnc2)N1C#N (single isomer, unassigned) [Compound 247 Isomer 1] | < 2 | 2 to 10 | < 2 | – |
| CC(C)(C)c1ccc(N(C(=O)[C@H]2C[C@@H](O)CN2C#N)C(C(=O)NC2CCCCC2)c2cccnc2)cc1 (single isomer, unassigned) [Compound 254 Isomer 1] | – | 2 to 10 | – | EC50 (HCoV 229E): 2 to 10 µM; EC50 (229E Mpro; read-out: 229E Mpro EC50): < 2 µM |
| CC(C)(C)c1ccc(N(C(=O)[C@H]2C[C@@H](O)CN2C#N)C(C(=O)NC2CCCCC2)c2cccnc2)cc1 (single isomer, unassigned) [Compound 254] | < 2 | < 2 | < 2 | – |
| CC(C)(C)c1ccc(N(C(=O)[C@H]2C[C@H](O)CN2C#N)C(C(=O)NC2CCCCC2)c2cccnc2)cc1 (single isomer, unassigned) [Compound 255 Isomer 1] | – | 2 to 10 | < 2 | EC50 (HCoV 229E; listed as 255 Isomer 1): 10 to 30 µM |
| CC(C)(C)c1ccc(N(C(=O)[C@H]2C[C@H](O)CN2C#N)C(C(=O)NC2CCCCC2)c2cccnc2)cc1 (single isomer, unassigned) [Compound 255 Isomer 2] | – | < 2 | – | EC50 (HCoV 229E; listed as 255 Isomer 2): < 2 µM; EC50 (229E Mpro; read-out: 229E Mpro EC50): < 2 µM |
| CC(C)(C)c1ccc(N(C(=O)[C@H]2Cc3ccccc3CN2C#N)C(C(=O)NC2CCCCC2)c2cccnc2)cc1 (single isomer, unassigned) [Compound 374] | < 2 | – | – | – |
| CC(C)(C)c1ccc(N(C(=O)[C@H]2CCCN2C#N)C(C(=O)NC2CCCCC2)c2cccnc2)cc1 (single isomer, unassigned) [Compound 1248 Isomer 1] | < 2 | – | – | – |
| CC(C)(C)c1ccc(N(C(=O)[C@H]2CCCN2C#N)C(C(=O)NC2CCCCC2)c2cccnc2)cc1 (single isomer, unassigned) [Compound 1248 Isomer 2] | – | – | – | EC50 (HCoV 229E): 2 to 10 µM |
| CC(C)(C)c1ccc(N(C(=O)[C@H]2CCC(C)(C)N2C#N)C(C(=O)NC2CCCCC2)c2cccnc2)cc1 (stereo partly drawn) [Compound 262, (2R)—N-(4-tert-butylphenyl)-1-cyano-N-[2-(cyclohexylamino)-2-oxo-1-(3-pyridyl)ethyl]-5,5-dimethyl-pyrrolidine-2-carboxamide] | < 2 | – | – | – |
| CC(C)(C)c1ccc(N(C(=O)C2c3ccccc3CN2C#N)C(C(=O)NC2CCCCC2)c2cccnc2)cc1 (stereo not drawn) [Compound 371] | < 2 | – | – | – |
| CC(C)(C)c1ccc(N(C(=O)[C@H]2CCCN2C#N)C(C(=O)NCCN2CCOCC2)c2cccnc2)cc1 (stereo partly drawn) [Compound 391, (2R)—N-(4-(tert-butyl)phenyl)-1-cyano-N-(2-((2-morpholinoethyl)amino)-2-oxo-1-(pyridin-3-yl)ethyl)pyrrolidine-2-carboxamide] | 2 to 10 | – | – | – |

| Compound | EC50 (HCoV 229E; unidentified human coronavirus) [µM] | IC50 [1] [µM] | EC50 (229E Mpro; 229E Mpro EC50) [µM] | further results |
| --- | --- | --- | --- | --- |
| COc1ccc(NC(=O)C(c2cccnc2)N(C(=O)[C@H]2CCCN2C#N)c2ccc(C(C)(C)C)cc2)cn1 (stereo partly drawn) [Compound 407, (2R)—N-(4-(tert-butyl)phenyl)-1-cyano-N-(2-((6-methoxypyridin-3-yl)amino)-2-oxo-1-(pyridin-3-yl)ethyl)pyrrolidine-2-carboxamide] | < 2 | – | – | – |
| CC(C)(C)c1ccc(N(C(=O)[C@H]2CCCN2C#N)C(C(=O)NC2CCCCC2)c2cncc(F)c2)cc1 (stereo partly drawn) [Compound 475, (2R)—N-(4-(tert-butyl)phenyl)-1-cyano-N-(2-(cyclohexylamino)-1-(5-fluoropyridin-3-yl)-2-oxoethyl)pyrrolidine-2-carboxamide] | < 2 | – | – | – |
| CC(C)(C)c1ccc(N(C(=O)C2CCC(F)(F)CN2C#N)C(C(=O)NC2CCCCC2)c2cccnc2)cc1 (stereo not drawn) [Compound 885] | 2 to 10 | – | – | – |
| CC(C)(C)c1ccc(N(C(=O)[C@H]2[C@H](F)CCN2C#N)C(C(=O)NC2CCCCC2)c2cccnc2)cc1 (stereo partly drawn) [Compound 910, (2S,3R)—N-(4-tert-butylphenyl)-1-cyano-N-[2-(cyclohexylamino)-2-oxo-1-(3-pyridyl)ethyl]-3-fluoro-pyrrolidine-2-carboxamide] | < 2 | – | – | – |
| CC(C)(C)c1ccc(N(C(=O)[C@H]2CCCN2C#N)C(C(=O)N2CCOCC2)c2cccnc2)cc1 (stereo partly drawn) [Compound 959] | 2 to 10 | – | – | – |
| O=C(NC1CCCCC1)C(c1cnnc2ccccc12)N(C(=O)[C@H]1C[C@@H](O)CN1)c1ccc(S(F)(F)(F)(F)F)cc1 (stereo partly drawn) [Compound 988] | < 2 | – | – | – |
| COc1cncc(C(C(=O)NC2CCCCC2)N(C(=O)[C@H]2C[C@@H](O)CN2C#N)c2ccc(C(C)(C)C)cc2)c1 (stereo partly drawn) [Compound 992] | 2 to 10 | – | – | – |
| CO[C@@H]1C[C@H](C(=O)N(c2ccc(S(F)(F)(F)(F)F)cc2)C(C(=O)N2CCNCC2)c2cccnc2)N(C#N)C1 (stereo partly drawn) [Compound 1149] | < 2 | – | – | – |
| CO[C@@H]1C[C@H](C(=O)N(c2ccc(S(F)(F)(F)(F)F)cc2)C(C(=O)NC2CCC(F)(F)CC2)c2cncs2)N(C#N)C1 (stereo partly drawn) [Compound 1311, (2R,4R)-1-cyano-N-[2-[(4,4-difluorocyclohexyl)amino]-2-oxo-1-thiazol-5-yl-ethyl]-4-methoxy-N-[4-(pentafluoro-λ^6-sulfanyl)phenyl]pyrrolidine-2-carboxamide] | – | < 2 | < 2 | IC50 (HCov OC43): < 2 µM |
| N#CN1CCOC[C@@H]1C(=O)N(c1ccc(S(F)(F)(F)(F)F)cc1)C(C(=O)NC1CCC(F)(F)CC1)c1cccnc1 (stereo partly drawn) [Compound 1315, (3R)-4-cyano-N-[2-[(4,4-difluorocyclohexyl)amino]-2-oxo-1-(3-pyridyl)ethyl]-N-[4-(pentafluoro-λ6-sulfanyl)phenyl]morpholine-3-carboxamide] | – | < 2 | < 2 | IC50 (HCov OC43): < 2 µM |
| CO[C@@H]1C[C@H](C(=O)N(c2ccc(S(F)(F)(F)(F)F)cc2)C(C(=O)NC2CCC(F)(F)CC2)c2ccnnc2)N(C#N)C1 (stereo partly drawn) [Compound 1320, (2R,4R)-1-cyano-N-[2-[(4,4-difluorocyclohexyl)amino]-2-oxo-1-pyridazin-4-yl-ethyl]-4-methoxy-N-[4-(pentafluoro-λ6-sulfanyl)phenyl]pyrrolidine-2-carboxamide] | – | > 30 | > 30 | IC50 (HCov OC43): > 30 µM |
| C[C@@]1(O)C[C@H](C(=O)N(c2ccc(S(F)(F)(F)(F)F)cc2)C(C(=O)NC2CCOCC2)c2cnccn2)N(C#N)C1 (stereo partly drawn) [Compound 1322, (2R,4R)-1-cyano-4-hydroxy-4-methyl-N-[2-oxo-1-pyrazin-2-yl-2-(tetrahydropyran-4-ylamino)ethyl]-N-[4-(pentafluoro-λ6-sulfanyl)phenyl]pyrrolidine-2-carboxamide] | – | < 2 | < 2 | IC50 (HCov OC43): < 2 µM |
| CC(C)(C)c1ccc(N(C(=O)[C@H]2C[C@@](C)(O)CN2C#N)C(C(=O)NC2CCC(F)(F)CC2)c2cnccn2)cc1 (stereo partly drawn) [Compound 1326, (2R,4R)—N-(4-(tert-butyl)phenyl)-1-cyano-N-(2-((4,4-difluorocyclohexyl)amino)-2-oxo-1-(pyrazin-2-yl)ethyl)-4-hydroxy-4-methylpyrrolidine-2-carboxamide] | – | < 2 | < 2 | IC50 (HCov OC43): < 2 µM |
| C[C@H](NC(=O)C(c1cnccc1C(F)(F)F)N(C(=O)[C@H]1C[C@@](C)(O)CN1C#N)c1ccc(S(F)(F)(F)(F)F)cc1)c1ccccc1 (stereo partly drawn) [Compound 1347, (2R,4R)-1-cyano-4-hydroxy-4-methyl-N-[2-oxo-2-[[(1S)-1-phenylethyl]amino]-1-[4-(trifluoromethyl)-3-pyridyl]ethyl]-N-[4-(pentafluoro-λ6-sulfanyl)phenyl]pyrrolidine-2-carboxamide] | – | < 2 | < 2 | IC50 (HCov OC43): < 2 µM |
| C[C@@H]1OCCN(C#N)[C@H]1C(=O)N(c1ccc(S(F)(F)(F)(F)F)cc1)C(C(=O)NC1CCOCC1)c1cncc(F)c1 (stereo partly drawn) [Compound 1419] | – | < 2 | < 2 | IC50 (HCov OC43): 2 to 10 µM |
